According to the NIST ThermoML archive (doi:10.1016/j.jct.2007.02.002):
Numbers after ± are expanded uncertainties.

Conditions: 101.33 kPa, Liquid; for speed of sound: Sing-around technique in a fixed-path interferometer

mass density (288.15 K) | speed of sound (288.15 K) | mass density (293.15 K) | speed of sound (293.15 K) | mass density (298.15 K) | speed of sound (298.15 K) | mass density (303.15 K) | speed of sound (303.15 K) | mass density (308.15 K) | speed of sound (308.15 K) | SMILES
745.79 ± 0.27 kg/m3 | 1082.4 ± 1.2 m/s | 740.6 ± 0.28 kg/m3 | 1059.4 ± 1.2 m/s | 735.35 ± 0.28 kg/m3 | 1036.1 ± 1.2 m/s | 730.06 ± 0.28 kg/m3 | 1013 ± 1.2 m/s | 724.73 ± 0.29 kg/m3 | 990.1 ± 1.1 m/s | COC(C)(C)C [2-methoxy-2-methylpropane]
813.24 ± 0.4 kg/m3 | 1273.7 ± 1.7 m/s | 809.48 ± 0.4 kg/m3 | 1257 ± 1.7 m/s | 805.67 ± 0.4 kg/m3 | 1239.8 ± 1.7 m/s | 801.85 ± 0.4 kg/m3 | 1222.7 ± 1.7 m/s | 797.99 ± 0.41 kg/m3 | 1205.9 ± 1.7 m/s | CCCCO [butan-1-ol]
663.87 ± 0.68 kg/m3 | 1121.4 ± 1.3 m/s | 659.44 ± 0.69 kg/m3 | 1099 ± 1.3 m/s | 654.95 ± 0.7 kg/m3 | 1076.3 ± 1.2 m/s | 650.4 ± 0.7 kg/m3 | 1053.6 ± 1.2 m/s | 645.82 ± 0.71 kg/m3 | 1031.1 ± 1.2 m/s | CCCCCC [hexane]
